Measurements as given in publication PMC11342128, “Gold(I) and gold(III) carbene complexes from the marine betaine norzooanemonin: inhibition of thioredoxin reductase, antiproliferative and antimicrobial activity” (RSC Medicinal Chemistry, 2024).

How the values were obtained:
[1] = target: TrxR from E. coli (Escherichia coli, UniProt P0A9P4); assay: Inhibition of isolated bacterial TrxR, DTNB-based assay; type: biochemical; design: purchased Sigma-Aldrich; conditions: compounds at 0.5 µM; n = 2; Table S13
Sequence of TrxR from E. coli (P0A9P4 2-321): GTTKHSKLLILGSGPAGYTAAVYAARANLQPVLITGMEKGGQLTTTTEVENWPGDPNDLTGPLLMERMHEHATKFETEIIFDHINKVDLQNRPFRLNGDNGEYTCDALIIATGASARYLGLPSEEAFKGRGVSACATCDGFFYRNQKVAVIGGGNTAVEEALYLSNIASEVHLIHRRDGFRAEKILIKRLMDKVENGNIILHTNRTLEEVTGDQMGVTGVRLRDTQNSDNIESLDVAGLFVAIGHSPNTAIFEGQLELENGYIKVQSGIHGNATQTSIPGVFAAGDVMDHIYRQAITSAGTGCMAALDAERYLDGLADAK
Procedure: The inhibition of isolated TrxR from E. coli was determined for the selected monocarbene gold(I/III) complexes 2a–c and 4b–c using a DTNB-based assay (Table 3). […] The inhibition of bacterial TrxR for compound 2a was investigated in our previous report (Table 3).
S2.3. Inhibition of bacterial TrxR from E. coli
The TrxR (E. coli) inhibition assay was performed according to previously published procedures.[8] The assay is partly based on the procedure developed by Lu et al[9] and makes use of the reduction of DTNB (5,5′-dithiobis-(2-nitrobenzoic acid)). Solutions of E. coli TrxR (10.1 U/mL) and E. coli thioredoxin (Trx) (312 μg/mL) (both purchased from Sigma-Aldrich) were prepared in distilled water. Stock solutions of the test compounds (2 mM) were prepared in DMSO and serially diluted with TE buffer (Tris-HCl 50 mM, EDTA 1 mM, pH 7.5). 20 μL of these solutions or TE buffer without the test compounds (positive control) were mixed with the TrxR solution (10 μL), the Trx solution (10 μL) and 100 µl of NADPH (200 μM) in TE buffer in a well on a 96-well plate. As a blank control, 200 μM NADPH in TE buffer (100 μL) mixed with a DMSO / buffer mixture (40 μL) was used (final concentrations of DMSO: 0.5% v/v). The plate was incubated for 75 min at 25°C with moderate shaking. After incubation, 100 μL of a reaction mixture (TE buffer containing 200 μM NADPH and 5 mM DTNB) was added to each well to initiate the reaction. After thorough mixing, the formation of 5-TNB was monitored by a microplate reader at 405 nm in 35 s intervals (10 measurements). The values were corrected by subtraction of the blank solution absorption values. The increase in concentration of 5-TNB followed a linear trend (r2≥ 0.990) and the enzymatic activities were calculated as the gradients (increase in absorbance per second) thereof. […]
for each test compound, where the highest test compound concentration was used and the enzyme solution was replaced by TE buffer. The inhibition is presented as the mean IC50 values and standard deviations obtained in three independent experiments.
Table S13. Activity of TrxR from E. coli in presence of compounds at 0.5 µM (n = 2, n.d.= not

[2] = system: MCF-7 breast adenocarcinoma cells; assay: Antiproliferative activity, crystal violet assay; type: cell-based; conditions: 96 h exposure, SD in parentheses, n = 3
Procedure: (§1) The antiproliferative potential of the gold–NHC complexes was determined in A549 lung carcinoma cells, MDA-MB-231 breast cancer cells, MCF-7 breast adenocarcinoma cells, and HT-29 colon carcinoma cells (Table 1). Vero E6 African green monkey kidney cells served as a reference cell line to check for possible tumour selectivity. Auranofin (AF) was used as an established reference drug.[15,17] […]
(§2) S2.2. Cytotoxicity and Anticancer Studies
(§3) Cell culture and cytotoxicity
(§4) Cell lines were sourced from DSMZ (German Collection of Microorganisms and Cell Cultures GmbH) and maintained through standard procedures in Dulbecco's Modified Eagle Medium (DMEM) supplemented with 10% fetal calf serum and 50 mg/L gentamycin. Antiproliferative effects were assessed using a well-established assay protocol. In brief, 100 μL volumes of A549 cells (13,243 cells per mL), HT-29 cells (14,657 cells per mL), MDA-MB-231 cells (6,613 cells per mL), or MCF-7 cells (6,917 cells per mL) were transferred into the wells of 96-well plates and incubated at 37°C/5% CO2 for 72 […]
(§5) Freshly prepared stock solutions of the compounds in DMSO were diluted with the respective cell culture medium to achieve graded concentrations (final concentration of DMSO: 0.1% v/v). After 72 hours (A549, HT-29) or 96 hours (MCF-7, MDA-MB-231) of exposure, the cell biomass was assessed through crystal violet staining, and the IC50 value was determined as the concentration causing 50% inhibition of cell proliferation compared to an untreated control. Results were calculated as the mean values of three independent experiments.

[3] = system: A549 lung carcinoma cells; assay: Antiproliferative activity, crystal violet assay; type: cell-based; conditions: 72 h exposure, SD in parentheses, n = 3
Procedure: as §1, §2, §3, §4, §5

[4] = system: HT-29 colon carcinoma cells; assay: Antiproliferative activity, crystal violet assay; type: cell-based; conditions: 72 h exposure, SD in parentheses, n = 3
Procedure: as §1, §2, §3, §4, §5

[5] = system: MDA-MB-231 breast cancer cells; assay: Antiproliferative activity, crystal violet assay; type: cell-based; conditions: 96 h exposure, SD in parentheses, n = 3
Procedure: as §1, §2, §3, §4, §5

[6] = system: Vero E6 African green monkey kidney cells; assay: Antiproliferative activity in non-tumour reference cell line; type: cell-based; conditions: for IC50: Vero E6 non-tumour reference cell line, SD in parentheses, n = 3; for Tumour selectivity: tumour cell lines in comparison to Vero E6: comparison of IC50 in tumour cell lines and non-tumour Vero E6
Procedure: as §1, §2, §3, §4, §5

For CCOC(=O)c1cn(C)[c]([Au-]([Cl])([Cl])[c]2n(C)cc(C(=O)OCC)[n+]2C)[n+]1C.F[B-](F)(F)F [5c], which “TrxR activity, % of control” value [1] is on record?
Its value is 93.5 % of control.

And the IC50 [2]?
The IC50 was 3.91 µM.

And the IC50 [3]?
The IC50 was 0.89 µM.

And the IC50 [4]?
Its IC50 is 4.29 µM.

And the IC50 [5]?
The IC50 was 2.33 µM.

And the IC50 [6]?
Its IC50 is 30.8 µM.

And the “Tumour selectivity: tumour cell lines in comparison to Vero E6” value [6]?
The value was “clear preference for the tumour cell lines”.

Cn1cc(C(=O)O)[n+](C)[c]1[Au-]([Cl])([Cl])[c]1n(C)cc(C(=O)O)[n+]1C.[Cl-] [5a] was tested. Which “TrxR activity, % of control” value [1] did it give?
Its value is 91.6 % of control.

And the IC50 [2]?
Its IC50 is > 100 µM.

And the IC50 [3]?
Its IC50 is > 100 µM.

What about the IC50 [4] of the same molecule?
Its IC50 is > 100 µM.

What about the IC50 [5] of the same molecule?
Its IC50 is > 100 µM.

What about the IC50 [6] of the same molecule?
Its IC50 is > 100 µM.

For COC(=O)c1cn(C)[c]([Au-]([Cl])([Cl])[c]2n(C)cc(C(=O)OC)[n+]2C)[n+]1C.O=S(=O)([O-])C(F)(F)F [5b], which “TrxR activity, % of control” value [1] is on record?
The value was 90.8 % of control.

And the IC50 [2]?
Its IC50 is 20 µM.

And the IC50 [3]?
Its IC50 is 3.35 µM.

What about the IC50 [4] of the same molecule?
The IC50 was 18.6 µM.

And the IC50 [5]?
Its IC50 is 14.8 µM.

What about the IC50 [6] of the same molecule?
Its IC50 is > 100 µM.

What about the “Tumour selectivity: tumour cell lines in comparison to Vero E6” value [6] of the same molecule?
Its value is “clear preference for the tumour cell lines”.
